Molecular target: T1, IRAK4 (Homo sapiens, UniProt Q9NWZ3)
T1 sequence (Q9NWZ3 1-460): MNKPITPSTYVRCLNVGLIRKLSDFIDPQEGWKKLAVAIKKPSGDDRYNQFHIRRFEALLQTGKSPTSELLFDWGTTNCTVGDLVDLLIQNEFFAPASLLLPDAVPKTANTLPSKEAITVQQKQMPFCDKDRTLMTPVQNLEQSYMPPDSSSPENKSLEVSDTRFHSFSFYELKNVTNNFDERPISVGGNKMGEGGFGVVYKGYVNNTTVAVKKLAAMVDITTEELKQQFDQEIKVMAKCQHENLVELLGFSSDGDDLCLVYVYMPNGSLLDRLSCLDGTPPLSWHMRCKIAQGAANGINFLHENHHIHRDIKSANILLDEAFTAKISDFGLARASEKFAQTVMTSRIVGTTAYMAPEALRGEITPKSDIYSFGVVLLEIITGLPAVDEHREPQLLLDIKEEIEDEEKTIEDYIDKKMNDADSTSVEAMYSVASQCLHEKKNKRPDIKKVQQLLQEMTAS
Experiment: OCI-LY-10 degradation assay (western blot, % IRAK4 degraded after 4 hours)
Format: cell-based
Parameters: endogenous in cells; host or cells: OCI-LY10
Conditions: OCI-LY10 cells, IRAK4 degraded after 4 hours, western blot
Procedure: Compounds were reconstituted in DMSO to make stock solutions at concentration of 60 mM. THP-1 and OCI-LY10 cells were maintained in RPMI-1640 medium containing 10% FBS, 0.5 μM 2-ME or 20% FBS, 55 μM 2-ME, and 1% L-Glutamine respectively.
Cells were seeded into 6-well plates with 5e6 cells per well. 200 μL of diluted compounds were added to cells to the final concentration of 0.003-10 μM. After 4 or 24 hour-incubation at 37° C., cells were collected into 2 mL Eppendorf tubes and centrifuged at 1,000 rpm for 5 min. The cell pellets were washed with 1×DPBS once and resuspended in 60 μL lysis buffer. The cells were lysed on ice for 10 min, then centrifuged at 14,000 rpm for 10 min at 4° C. and the supernatants were collected for western blots. For THP-1 cells, the lysis buffer contained 40 mM pH 7.4 HEPES, 140 mM NaCl, 2.5 mM EDTA, 1% NP-40, 0.1% SDS, and protease inhibitor cocktail (Roche, Cat. No. 05892791001). For OCI-LY10 cells, RIPAbuffer (Thermo Fisher, 89900) with Halt Protease and Phosphatase Inhibitor Cocktail (Thermo Fisher, 78446) was applied.
The protein concentration of cell lysates was quantified with Pierce™ BCA Protein Assay Kit (Pierce, 23227). Albumin standards at different concentrations were prepared, involving 2,000 ug/mL, 1,500 ug/mL, 1,000 ug/mL, 750 ug/mL, 500 ug/mL, 250 ug/mL, 125 ug/mL, and 25 ug/mL. BCA working reagents were prepared by mixing BCA reagent A with reagent B in 50:1 ratio. 200 μL of the BCA working reagents were added to 25 μL of BCA standard or cell lysates in microplate, and mixed thoroughly on a plate shaker for 30 seconds. After incubation at 37° C. for 30 min, the absorbance of samples at 562 nm were measured with EnVision Plate Reader.
Protein lysates were prepared in NuPAGE™ LDS sample buffer and NuPAGE™ sample reducing agent, and incubated at 95° C. for 5 min. For western blots, 20-25 μg of total proteins were resolved in 4-12% Bis-Tris gels (Introgen, WG1403A) or 10% Bis-Tris Midi gels (Invitrogen, WG1202BOX) running with 1×MOPS SDS running buffer (Invitrogen, NP0001) or 1×MES SDS running buffer (Invitrogen, NP0002). The proteins were transferred to low fluorescence PVDF membranes using the Trans-Blot Turbo Transfer System. Membranes were then blocked in Odyssey blocking buffer at RT for 1 h followed by primary incubation at 4° C. overnight. The primary antibodies were IRAK1 rabbit monoclonal antibody (CST, #4504S, 1:500), IRAK3 rabbit polyclonal antibody (CST, #4369, 1:500), IRAK4 rabbit polyclonal antibody (CST, #4363S, 1:1,000), MyD88 rabbit monoclonal antibody (Abcam, Ab133739, 1:2,000), j3-actin mouse monoclonal antibody (Sigma, A5441, 10,000), and Gapdh mouse monoclonal antibody (Millipore, MAB374, 1:5,000). Membranes were washed three times with 1×TBST, and then incubated with IR Dye 800 CW Goat anti-rabbit (Licor, #926-32211) and IR Dye 700 CW Goat anti-mouse (Licor, #926-68070) secondary antibodies in 1:10,000 dilution at RT for 1 h. The western blot images were obtained using Odyssey Imaging System.
OCI-LY-10 results at 4 hours. The letter codes indicate the percentage of IRAK4 degraded after 4 hours: A (>50% degradation), B (>20-50% degradation) and C (<20% degradation)
OCI-LY-10 results at 4 hours. The letter codes for % IRAK4 degradation indicate the percentage of IRAK4 degraded after 4 hours across three different concentrations: A (>50% degradation), B (>20-50% degradation) and C (<20% degradation).

Row | SMILES | OCI-LY10 % IRAK4 Degradation
1 | CC[C@@H]1[C@H](F)C(=O)N(CCOCCOCCOCCOCCNc2cccc3c2C(=O)N(C2CCC(=O)NC2=O)C3=O)[C@@H]1COc1nccc2cc(C(N)=O)c(OC)cc12 (stereo partly drawn) [I-89, 1-[[(2S,3S,4S)-1-[2-[2-[2-[2-[2-[[2-(2,6-dioxo-3-piperidyl)-1,3-dioxo-isoindolin-4-yl]amino]ethoxy]ethoxy]ethoxy]ethoxy]ethyl]-3-ethyl-4-fluoro-5-oxo-pyrrolidin-2-yl]methoxy]-7-methoxy-isoquinoline-6-carboxamide] | C (<20% degradation)
2 | NC(=O)[C@@H](O)C[C@H]1CCc2sc3ncnc(O[C@H]4CC[C@H](N5CCN(CCOCCOCCNc6cccc7c6C(=O)N(C6CCC(=O)NC6=O)C7=O)CC5)CC4)c3c21 (stereo partly drawn) [I-90, (2S)-3-[(8R)-1-[4-[4-[2-[2-[2-[[2-(2,6-dioxo-3-piperidyl)-1,3-dioxo-isoindolin-4-yl]amino]ethoxy]ethoxy]ethyl]piperazin-1-yl]cyclohexoxy]-7,8-dihydro-6H-cyclopenta[4,5]thieno[1,2-c]pyrimidin-8-yl]-2-hydroxy-propanamide] | B (>20-50% degradation)
3 | NC(=O)[C@H](O)C[C@H]1CCc2sc3ncnc(O[C@H]4CC[C@H](N5CCN(CCOCCOCCNc6cccc7c6C(=O)N(C6CCC(=O)NC6=O)C7=O)CC5)CC4)c3c21 (stereo partly drawn) [I-91, (2R)-3-[(8R)-1-[4-[4-[2-[2-[2-[[2-(2,6-dioxo-3-piperidyl)-1,3-dioxo-isoindolin-4-yl]amino]ethoxy]ethoxy]ethyl]piperazin-1-yl]cyclohexoxy]-7,8-dihydro-6H-cyclopenta[4,5]thieno[1,2-c]pyrimidin-8-yl]-2-hydroxy-propanamide] | C (<20% degradation)
4 | NC(=O)c1nn(-c2ccc(COCCOCCOCCNc3cccc4c3C(=O)N(C3CCC(=O)NC3=O)C4=O)cc2)cc1NC(=O)c1coc(-c2ccnc(NCC(F)(F)F)c2)n1 (stereo not shown) [I-92, N-[3-carbamoyl-1-[4-[2-[2-[2-[[2-(2,6-dioxo-3-piperidyl)-1,3-dioxo-isoindolin-4-yl]amino]ethoxy]ethoxy]ethoxymethyl]phenyl]pyrazol-4-yl]-2-[2-(2,2,2-trifluoroethylamino)-4-pyridyl]oxazole-4-carboxamide] | A (>50% degradation)
5 | CC[C@@H]1[C@H](F)C(=O)N[C@@H]1COc1nccc2cc(C(=O)NCCOCCOCCOCCOCCNC(=O)COc3cccc4c3C(=O)N(C3CCC(=O)NC3=O)C4=O)c(OC)cc12 (stereo partly shown) [I-103] | C (<20% degradation)
6 | NC(=O)c1nn(-c2ccc(COCCOCCOCCOCCNC(=O)COc3cccc4c3C(=O)N(C3CCC(=O)NC3=O)C4=O)cc2)cc1NC(=O)c1coc(-c2ccnc(NCC(F)(F)F)c2)n1 (stereo not shown) [I-105, N-[3-carbamoyl-1-[4-[2-[2-[2-[2-[[2-[2-(2,6-dioxo-3-piperidyl)-1,3-dioxo-isoindolin-4-yl]oxyacetyl]amino]ethoxy]ethoxy]ethoxy]ethoxymethyl]phenyl]pyrazol-4-yl]-2-[2-(2,2,2-trifluoroethylamino)-4-pyridyl]oxazole-4-carboxamide] | A (>50% degradation)
7 | Cc1ccc(NS(=O)(=O)c2ccc(CNC(=O)COCCOCCOCCOCCNC(=O)c3ccc(-n4cc(NC(=O)c5coc(-c6ccnc(NCC(F)(F)F)c6)n5)c(C(N)=O)n4)cc3)cc2)c2[nH]cc(C#N)c12 [I-113] | C (<20% degradation)
8 | Cc1ccc(NS(=O)(=O)c2ccc(CNC(=O)COCCOCCOCCOCCOCCNC(=O)c3ccc(-n4cc(NC(=O)c5coc(-c6ccnc(NCC(F)(F)F)c6)n5)c(C(N)=O)n4)cc3)cc2)c2[nH]cc(C#N)c12 [I-114] | C (<20% degradation)
9 | Cc1ncsc1-c1ccc(CNC(=O)[C@@H]2C[C@@H](O)CN2C(=O)[C@@H](NC(=O)COCCOCCOCCNC(=O)c2ccc(-n3cc(NC(=O)c4coc(-c5ccnc(NCC(F)(F)F)c5)n4)c(C(N)=O)n3)cc2)C(C)(C)C)cc1 [I-115] | B (>20-50% degradation)

The remaining lines, values ahead:

Row | OCI-LY10 % IRAK4 Degradation | SMILES
10 | C (<20% degradation) | CC(OCCOCCNc1cccc2c1C(=O)N(C1CCC(=O)NC1=O)C2=O)C(F)CNC(=O)c1cnc(Nc2ccc3cnccc3n2)cc1NC1CC1 (stereo not shown) [I-84]
11 | C (<20% degradation) | CC(OCCOCCNc1cccc2c1C(=O)N(C1CCC(=O)NC1=O)C2=O)C(F)CNC(=O)c1cnc(-n2ncc3cc(C#N)cnc32)cc1NC1CC1 (stereo not shown) [I-85]
12 | C (<20% degradation) | CC(C)(OCCCOCCCNc1cccc2c1C(=O)N(C1CCC(=O)NC1=O)C2=O)C(F)CNC(=O)c1cnc(-n2ncc3cc(C#N)cnc32)cc1NC1CC1 (stereo not shown) [I-86]
13 | C (<20% degradation) | CC[C@@H]1[C@H](F)C(=O)N[C@@H]1COc1nccc2cc(C(=O)NCCOCCOCCNc3cccc4c3C(=O)N(C3CCC(=O)NC3=O)C4=O)c(OC)cc12 (stereo partly shown) [I-87]
14 | C (<20% degradation) | N#Cc1cnc2c(cnn2-c2cc(NC3CC3)c(C(=O)NCC(F)CCOCCOCCOCCNc3cccc4c3C(=O)N(C3CCC(=O)NC3=O)C4=O)cn2)c1 (stereo not shown) [I-88]
15 | C (<20% degradation) | CC(CNc1cccc2c1C(=O)N(C1CCC(=O)NC1=O)C2=O)OCCOCCOCC(F)CNC(=O)c1cnc(Nc2ccc3cnccc3n2)cc1NC1CC1 (stereo not shown) [I-93, 4-(Cyclopropylamino)-N-[3-[2-[2-[2-[[2-(2,6-dioxo-3-piperidyl)-1,3-dioxo-isoindolin-4-yl]amino]-1-methyl-ethoxy]ethoxy]ethoxy]-2-fluoro-propyl]-6-(1,6-naphthyridin-2-ylamino)pyridine-3-carboxamide]
16 | B (>20-50% degradation) | N#Cc1cnc2c(cnn2-c2cc(NC3CC3)c(C(=O)NCC(F)COCCNCCOCCNc3cccc4c3C(=O)N(C3CCC(=O)NC3=O)C4=O)cn2)c1 (stereo not shown) [I-94, 6-(5-Cyano-1H-pyrazolo[3,4-b]pyridin-1-yl)-4-(cyclopropylamino)-N-(3-(2-((2-(2-((2-(2,6-dioxopiperidin-3-yl)-1,3-dioxoisoindolin-4-yl)amino)ethoxy)ethyl)amino)ethoxy)-2-fluoropropyl)nicotinamide]
17 | C (<20% degradation) | N#Cc1cnc2c(cnn2-c2cc(NC3CC3)c(C(=O)NCC(F)COCCOCCNC(=O)COc3cccc4c3C(=O)N(C3CCC(=O)NC3=O)C4=O)cn2)c1 (stereo not shown) [I-95, 6-(5-Cyanopyrazolo[3,4-b]pyridin-1-yl)-4-(cyclopropylamino)-N-[3-[2-[2-[[2-[2-(2,6-dioxo-3-piperidyl)-1,3-dioxo-isoindolin-4-yl]oxyacetyl]amino]ethoxy]ethoxy]-2-fluoro-propyl]pyridine-3-carboxamide]
18 | C (<20% degradation) | CC(C)(OCCOCCNC(=O)COc1cccc2c1C(=O)N(C1CCC(=O)NC1=O)C2=O)C(F)CNC(=O)c1cnc(-n2ncc3cc(C#N)cnc32)cc1NC1CC1 (stereo not shown) [I-101]
19 | C (<20% degradation) | N#Cc1cnc2c(cnn2-c2cc(NC3CC3)c(C(=O)NCC(F)COCCCCCNC(=O)COc3cccc4c3C(=O)N(C3CCC(=O)NC3=O)C4=O)cn2)c1 (stereo not shown) [I-102]
